From PubChem BioAssay (NCI)
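At the GI50, growth is halved. TGI: concentration producing complete growth inhibition.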

What was measured:
Assay in all cases: inhibition of tumour cell growth, NCI panel, 384-well format
NCI-H522 lung = system: NCI-H522 lung
SW-620 colon = system: SW-620 colon
KM12 colon = system: KM12 colon
NCI-H460 NSCLC = system: NCI-H460 NSCLC
NCI/ADR-RES ovarian = system: NCI/ADR-RES ovarian
HCC-2998 colon = system: HCC-2998 colon
SNB-75 CNS = system: SNB-75 CNS
HS 578T breast = system: HS 578T breast
OVCAR-4 ovarian = system: OVCAR-4 ovarian
EKVX NSCLC = system: EKVX NSCLC
NCI-H23 lung = system: NCI-H23 lung
A498 renal = system: A498 renal
MCF7 breast = system: MCF7 breast
DU-145 prostate = system: DU-145 prostate
SK-MEL-28 melanoma = system: SK-MEL-28 melanoma
COLO 205 colon = system: COLO 205 colon
A549 NSCLC = system: A549 NSCLC
ACHN renal = system: ACHN renal
SN12C renal = system: SN12C renal
HT29 colon = system: HT29 colon
IGROV1 ovarian = system: IGROV1 ovarian
SK-OV-3 ovarian = system: SK-OV-3 ovarian
MDA-MB-468 breast = system: MDA-MB-468 breast
LOX IMVI melanoma = system: LOX IMVI melanoma
OVCAR-8 ovarian = system: OVCAR-8 ovarian
CCRF-CEM leukemia = system: CCRF-CEM leukemia
786-0 renal = system: 786-0 renal
UACC-257 melanoma = system: UACC-257 melanoma
BT-549 breast = system: BT-549 breast
OVCAR-3 ovarian = system: OVCAR-3 ovarian
SF-295 CNS = system: SF-295 CNS
T-47D breast = system: T-47D breast
HOP-62 NSCLC = system: HOP-62 NSCLC
M14 melanoma = system: M14 melanoma
PC-3 prostate = system: PC-3 prostate
CAKI-1 renal = system: CAKI-1 renal
SNB-19 CNS = system: SNB-19 CNS
RPMI-8226 leukemia = system: RPMI-8226 leukemia
SF-539 CNS = system: SF-539 CNS
HL-60(TB) leukemia = system: HL-60(TB) leukemia
UO-31 renal = system: UO-31 renal
MDA-MB-435 melanoma = system: MDA-MB-435 melanoma
MOLT-4 leukemia = system: MOLT-4 leukemia
NCI-H226 lung = system: NCI-H226 lung
SR leukemia = system: SR leukemia
NCI-H322M lung = system: NCI-H322M lung
OVCAR-5 ovarian = system: OVCAR-5 ovarian
RXF 393 renal = system: RXF 393 renal
MDA-MB-231 breast = system: MDA-MB-231 breast
SK-MEL-5 melanoma = system: SK-MEL-5 melanoma
MALME-3M melanoma = system: MALME-3M melanoma
K-562 leukemia = system: K-562 leukemia
HCT-15 colon = system: HCT-15 colon
SF-268 CNS = system: SF-268 CNS
UACC-62 melanoma = system: UACC-62 melanoma

C=CC(=O)N1C[C@H](COc2nc(Nc3cnn(C)c3)nc3[nH]cc(Cl)c23)[C@@H](OC)C1
GI50 (NCI-H522 lung): 0.281 µM | TGI (NCI-H522 lung): 0.858 µM | GI50 (SW-620 colon): 0.673 µM | TGI (SW-620 colon): 2.11 µM | GI50 (KM12 colon): 0.287 µM | TGI (KM12 colon): 14.3 µM | GI50 (NCI-H460 NSCLC): 1.81 µM | TGI (NCI-H460 NSCLC): 11.6 µM | GI50 (NCI/ADR-RES ovarian): 29.3 µM | TGI (NCI/ADR-RES ovarian): > 100 µM | GI50 (HCC-2998 colon): 3.86 µM | TGI (HCC-2998 colon): 15 µM | GI50 (SNB-75 CNS): 0.467 µM | TGI (SNB-75 CNS): 1.88 µM | GI50 (HS 578T breast): 1.37 µM | TGI (HS 578T breast): 4.19 µM | GI50 (OVCAR-4 ovarian): 1.75 µM | TGI (OVCAR-4 ovarian): 23.6 µM | GI50 (EKVX NSCLC): 1.31 µM | TGI (EKVX NSCLC): 7.08 µM | GI50 (NCI-H23 lung): 1.59 µM | TGI (NCI-H23 lung): 9.36 µM | GI50 (A498 renal): 0.584 µM | TGI (A498 renal): 21.4 µM | GI50 (MCF7 breast): 2.02 µM | TGI (MCF7 breast): 15.6 µM | GI50 (DU-145 prostate): 2.26 µM | TGI (DU-145 prostate): > 100 µM | GI50 (SK-MEL-28 melanoma): 3.82 µM | TGI (SK-MEL-28 melanoma): 16.8 µM | GI50 (COLO 205 colon): 0.54 µM | TGI (COLO 205 colon): 11.1 µM | GI50 (A549 NSCLC): 2.25 µM | TGI (A549 NSCLC): 13.1 µM | GI50 (ACHN renal): 1.94 µM | TGI (ACHN renal): 15.4 µM | GI50 (SN12C renal): 0.633 µM | TGI (SN12C renal): 12.8 µM | GI50 (HT29 colon): 4.01 µM | TGI (HT29 colon): > 100 µM | GI50 (IGROV1 ovarian): 0.852 µM | TGI (IGROV1 ovarian): 3.31 µM | GI50 (SK-OV-3 ovarian): 0.556 µM | TGI (SK-OV-3 ovarian): 5.05 µM | GI50 (MDA-MB-468 breast): 0.267 µM | TGI (MDA-MB-468 breast): 0.628 µM | GI50 (LOX IMVI melanoma): 1.52 µM | TGI (LOX IMVI melanoma): 11.6 µM | GI50 (OVCAR-8 ovarian): 4.15 µM | TGI (OVCAR-8 ovarian): 18.7 µM | GI50 (CCRF-CEM leukemia): 0.242 µM | TGI (CCRF-CEM leukemia): 0.544 µM | GI50 ([…]-0 renal): 4.84 µM | TGI (786-0 renal): 41.8 µM | GI50 (UACC-257 melanoma): 5.21 µM | TGI (UACC-257 melanoma): 17.1 µM | GI50 (BT-549 breast): 0.47 µM | TGI (BT-549 breast): 10.3 µM | GI50 (OVCAR-3 ovarian): 2.72 µM | TGI (OVCAR-3 ovarian): 23.6 µM | GI50 (SF-295 CNS): 13.3 µM | TGI (SF-295 CNS): 31.5 µM | GI50 (T-47D breast): 4.63 µM | TGI (T-47D breast): 18 µM | GI50 (HOP-62 NSCLC): 4.05 µM | TGI (HOP-62 NSCLC): 26.5 µM | GI50 (M14 melanoma): 2.17 µM | TGI (M14 melanoma): 18.2 µM | GI50 (PC-3 prostate): 4.53 µM | TGI (PC-3 prostate): 20.5 µM | GI50 (CAKI-1 renal): 1.17 µM | TGI (CAKI-1 renal): 11.9 µM | GI50 (SNB-19 CNS): 5.2 µM | TGI (SNB-19 CNS): 23.1 µM | GI50 (RPMI-8226 leukemia): 1 µM | TGI (RPMI-8226 leukemia): 3.47 µM | GI50 (SF-539 CNS): 1.21 µM | TGI (SF-539 CNS): 3.2 µM | GI50 (HL-60(TB) leukemia): 0.408 µM | TGI (HL-60(TB) leukemia): 1.55 µM | GI50 (UO-31 renal): 7.62 µM | TGI (UO-31 renal): > 100 µM | GI50 (MDA-MB-435 melanoma): 4.27 µM | TGI (MDA-MB-435 melanoma): 20.9 µM | GI50 (MOLT-4 leukemia): 0.308 µM | TGI (MOLT-4 leukemia): 0.833 µM | GI50 (NCI-H226 lung): 0.394 µM | TGI (NCI-H226 lung): 9.42 µM | GI50 (SR leukemia): 0.19 µM | TGI (SR leukemia): 0.351 µM | GI50 (NCI-H322M lung): 1.39 µM | TGI (NCI-H322M lung): 13.8 µM | GI50 (OVCAR-5 ovarian): 5.34 µM | TGI (OVCAR-5 ovarian): > 100 µM | GI50 (RXF 393 renal): 5.76 µM | TGI (RXF 393 renal): 22.3 µM | GI50 (MDA-MB-231 breast): 2.78 µM | TGI (MDA-MB-231 breast): > 100 µM | GI50 (SK-MEL-5 melanoma): 3.01 µM | TGI (SK-MEL-5 melanoma): 12.2 µM | GI50 (MALME-3M melanoma): 8.86 µM | TGI (MALME-3M melanoma): 21.2 µM | GI50 (K-562 leukemia): 2.14 µM | TGI (K-562 leukemia): 12.3 µM | GI50 (HCT-15 colon): 2.93 µM | TGI (HCT-15 colon): 12.3 µM | GI50 (SF-268 CNS): 1.93 µM | TGI (SF-268 CNS): 12.3 µM | GI50 (UACC-62 melanoma): 0.912 µM | TGI (UACC-62 melanoma): 13.5 µM
